Test results published in PMC9307952, “Lipoate protein ligase B primarily recognizes the C8-phosphopantetheine arm of its donor substrate and weakly binds the acyl carrier protein” (The Journal of Biological Chemistry, 2022).

Tests used:
MmLipT2 (mice LipT2) = MmLipT2 (mice LipT2) (Mus musculus, UniProt Q9D009); conditions: 75 μM C8-CoA, 25 μM GcvH, 50 mM Tris-HCl, 500 mM NaCl, pH 8.0, 37 °C
E. coli LipB (EcLipB) = E. coli LipB (EcLipB) (Escherichia coli, UniProt P60720); conditions: CoA:LipB 10:1 (STD, 283 K) or 8:1 (31P, 298 K), 50 mM Tris, 200 mM NaCl, pH 7.8
E. coli LipB (EcLipB), sequence (P60720 whole entry): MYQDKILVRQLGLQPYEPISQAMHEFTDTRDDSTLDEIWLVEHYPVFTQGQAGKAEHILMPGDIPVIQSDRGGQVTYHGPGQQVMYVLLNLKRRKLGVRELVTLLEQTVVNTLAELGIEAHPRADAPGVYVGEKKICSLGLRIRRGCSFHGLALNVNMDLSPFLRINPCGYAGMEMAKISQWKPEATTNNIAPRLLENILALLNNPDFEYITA

MmLipT2 (mice LipT2), sequence (Q9D009 whole entry): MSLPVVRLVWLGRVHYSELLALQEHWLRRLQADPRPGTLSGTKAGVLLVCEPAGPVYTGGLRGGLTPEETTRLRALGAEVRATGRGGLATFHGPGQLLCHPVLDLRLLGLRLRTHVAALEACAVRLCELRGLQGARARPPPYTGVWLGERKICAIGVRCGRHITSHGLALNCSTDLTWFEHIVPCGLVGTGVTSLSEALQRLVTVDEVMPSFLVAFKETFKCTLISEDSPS

## CCCCCCCC(=O)SCCNC(=O)CCNC(=O)[C@H](O)C(C)(C)COP(=O)(O)OP(=O)(O)OC[C@H]1O[C@@H](n2cnc3c(N)ncnc32)[C@H](O)[C@@H]1OP(=O)(O)O [C8-CoA]
MmLipT2 (mice LipT2)
  octanoyl transfer to E. coli GcvH, SDS-PAGE band shift and HPLC: MmLipT2 also successfully converted E. coli GcvH using C8-CoA as a donor substrate

## CC(C)(COP(=O)(O)OP(=O)(O)OC[C@H]1O[C@@H](n2cnc3c(N)ncnc32)[C@H](O)[C@@H]1OP(=O)(O)O)[C@@H](O)C(=O)NCCC(=O)NCCS [CoA]
E. coli LipB (EcLipB)
  1H STD NMR; 31P NMR: suggesting binding of the adenosine ring
